Measurements published in patent US11654198B2, “Application of combination of polyethylene glycol and local anesthetic in non-narcotic analgesia” (JENKEM TECHNOLOGY CO., LTD. (TIANJIN), priority 2016, dated 2023).

Assays:
SD rats [1] = assay: Motor block four-level score, rat sciatica model (SNL) (Example 32); assay type: in vivo; design: key to motor function score: 1 = normal paw movement to 4 = complete loss, gait defect; conditions: for motor function score: bupivacaine 8, conjugate 10/11/12 32/24/48 mg/kg; for effect on motor function of SD rats: conjugate 10/11/12 at 32/24/48 mg/kg
Source text: (§1) Intervertebral disc compression (SNL): This model is a pathological form that simulates clinical disc herniation. The specific method is to remove the autogenous caudal intervertebral disc tissue (annulus fibrosus and nucleus pulposus) form the rats and place the caudal intervertebral disc tissue between the proximal nerve root of the L5 dorsal root ganglion and the lower vertebral body to directly compress the L5 nerve root, wherein damage to the L5 nerve root or dorsal root ganglion should be avoided during the operation. 3 to 15 days after the model is successful, rats develop significant hyperalgesia, so the administration time we chose is between 3 days and 15 days.
(§2) Qualified rats are randomly divided into 5 groups, 6 rats in each group, which are labeled as groups G1, G2, G3, G4 and G5, respectively. Administration by intramuscular injection around sciatic nerve is adopted, and the grouping information of the experimental animals is shown in Table 11.
Motor block (four-level score): The exercise condition of each group of rats is evaluated by the motor block four-level scoring method. The scoring criteria are: paws can be dorsiflexed, stretched, valgus and other normal exercises, scored by 1 point; paws can be dorsiflexed, bendable or after the adduction, although the paws can be stretched, the stretching ability is weakened, scored by 2 points; the paw can perform dorsiflexion, but no longer has the ability to stretch, scored by 3 points; the paw completely loses the ability of dorsiflexion, curling and stretching, and the rats produce a gait defect, scored by 4 points. The time point for determining the withdrawal time of the hot plate is before administration, and 0.5 h, 1 h, 2 h, 4 h, 6 h, 8 h, 12 h, and 24 h after administration.

SD rats [2] = assay: Hot plate paw withdrawal time, rat sciatica model, intervertebral disc compression (SNL) (Example 32); assay type: in vivo; conditions: for time the analgesic effect can reach: conjugate 10/11/12 at 32/24/48 mg/kg
Source text: as §1, §2
Sensory block (hot plate paw withdrawal time): The sensory block of the rat is examined by a hot plate method, and the hot plate is heated to (56±1)° C., and one of the hind paws of the rat is placed on the hot plate, the other hind paw is in the laboratory room temperature condition, and the tested paw withdrawal time is observed and recorded. The average value of two to three times measured is recorded as a pain threshold. In order to avoid the damage of the experimental animal body, if the rat has no paw withdrawal in the hot plate experiment for more than 15 s, the paws should be removed from the hot plate, and the experimental result is recorded as 15 s. The time point for determining the withdrawal time of the hot plate is before administration, and 0.5 h, 1 h, 2 h, 4 h, 6 h, 8 h, 12 h, and 24 h after administration.

[3] = 0 h (after surgery, before administration), bupivacaine 8, conjugate 10/11/12 32/24/48 mg/kg
[4] = 0.5 h after intramuscular injection around sciatic nerve, bupivacaine 8, conjugate 10/11/12 32/24/48 mg/kg
[5] = 1 h after intramuscular injection around sciatic nerve, bupivacaine 8, conjugate 10/11/12 32/24/48 mg/kg
[6] = 2 h after intramuscular injection around sciatic nerve, bupivacaine 8, conjugate 10/11/12 32/24/48 mg/kg
[7] = 4 h after intramuscular injection around sciatic nerve, bupivacaine 8, conjugate 10/11/12 32/24/48 mg/kg
[8] = 6 h after intramuscular injection around sciatic nerve, bupivacaine 8, conjugate 10/11/12 32/24/48 mg/kg
[9] = 8 h after intramuscular injection around sciatic nerve, bupivacaine 8, conjugate 10/11/12 32/24/48 mg/kg
[10] = 12 h after intramuscular injection around sciatic nerve, bupivacaine 8, conjugate 10/11/12 32/24/48 mg/kg
[11] = 24 h after intramuscular injection around sciatic nerve, bupivacaine 8, conjugate 10/11/12 32/24/48 mg/kg
[12] = before surgery, bupivacaine 8, conjugate 10/11/12 32/24/48 mg/kg (as bupivacaine)
[13] = bupivacaine 8, conjugate 10/11/12 32/24/48 mg/kg

Substance | motor function score (SD rats [1]; 0.5 h) | motor function score (SD rats [1]; 1 h) | motor function score (SD rats [1]; 2 h) | motor function score (SD rats [1]; 4 h) | motor function score (SD rats [1]; 6 h) | motor function score (SD rats [1]; 8 h) | motor function score (SD rats [1]; 12 h) | motor function score (SD rats [1]; 24 h) | effect on motor function of SD rats (SD rats [1]) | hot plate paw withdrawal time (SD rats [2]; [3]) [s] | hot plate paw withdrawal time (SD rats [2]; [4]) [s] | hot plate paw withdrawal time (SD rats [2]; [5]) [s] | hot plate paw withdrawal time (SD rats [2]; [6]) [s] | hot plate paw withdrawal time (SD rats [2]; [7]) [s] | hot plate paw withdrawal time (SD rats [2]; [8]) [s] | hot plate paw withdrawal time (SD rats [2]; [9]) [s] | hot plate paw withdrawal time (SD rats [2]; [10]) [s] | hot plate paw withdrawal time (SD rats [2]; [11]) [s] | hot plate paw withdrawal time (SD rats [2]; [12]) [s] | time the analgesic effect can reach (SD rats [2]) [h] | other results
8-Arm-PEG-Bupivacaine, 20K [bupivacaine conjugate 12] | 1 ± 0 | 1 ± 0 | 1 ± 0 | 1 ± 0 | 1 ± 0 | 1 ± 0 | 1 ± 0 | 1 ± 0 | does not affect the motor function | 1.89 | 8.13 | 7.21 | 6.12 | 2.98 | 2.91 | 2.18 | 1.85 | 2.56 | 5.51 | 2 | time after administration at which hot plate paw withdrawal time is significantly higher than vehicle group (SD rats [2]; [13]): ≤ 2 h
8-Arm-PEG-Bupivacaine, 20K [bupivacaine conjugate 11] | 1 ± 0 | 1 ± 0 | 1 ± 0 | 1 ± 0 | 1 ± 0 | 1 ± 0 | 1 ± 0 | 1 ± 0 | does not affect the motor function | 2.14 | 7.43 | 8.49 | 9.10 | 8.31 | 7.10 | 1.97 | 2.71 | 2.76 | 5.15 | ≥ 6 | time after administration at which hot plate paw withdrawal time is significantly higher than vehicle group (SD rats [2]; [13]): ≤ 6 h
8-Arm-PEG-Bupivacaine, 20K [bupivacaine conjugate 10] | 1 ± 0 | 1.75 ± 0.5 | 1.75 ± 0.5 | 1.75 ± 0.5 | 1.75 ± 0.5 | 1.75 ± 0.5 | 1 ± 0 | 1 ± 0 | does not affect the motor function | 2.41 | 6.52 | 10.12 | 11.43 | 9.83 | 8.10 | 6.91 | 1.96 | 2.18 | 4.98 | 8 | –
